Reference: PubChem BioAssay (NCI)
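Cells were grown in 96-well plates and exposed to each compound for 48 hours at five concentrations; endpoints were interpolated linearly between bracketing concentrations, or set to the highest concentration if not reached. At the GI50, growth is halved. TGI is the concentration that stops growth completely.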

How the values were obtained:
Experiment in all cases: NCI-60 cell line screen, 48 h
NCI/ADR-RES ovarian = test system: NCI/ADR-RES ovarian
HCC-2998 colon = test system: HCC-2998 colon
CAKI-1 renal = test system: CAKI-1 renal
DU-145 prostate = test system: DU-145 prostate
OVCAR-4 ovarian = test system: OVCAR-4 ovarian
HL-60(TB) leukemia = test system: HL-60(TB) leukemia
A498 renal = test system: A498 renal

Structure (SMILES) | TGI (NCI/ADR-RES ovarian) [µM] | TGI (HCC-2998 colon) [µM] | TGI (CAKI-1 renal) [µM] | TGI (DU-145 prostate) [µM] | TGI (OVCAR-4 ovarian) [µM] | TGI (HL-60(TB) leukemia) [µM] | TGI (A498 renal) [µM] | GI50 (DU-145 prostate) [µM]
N#Cc1sc2c(c1OC(=O)c1ccco1)c(=O)n(-c1ccccc1)c(=S)n2-c1ccccc1 | 82 | > 100 | > 100 | > 100 | 81.2 | > 100 | – | –
C[Si](C)(C)OC1(C#N)c2ccccc2CCCC12CCCC2 (centres undefined) | > 100 | 44 | > 100 | > 100 | > 100 | 39.2 | > 100 | –
O=C(O)C(Cc1ccccc1)Cc1ccccc1 | > 100 | – | > 100 | > 100 | > 100 | > 100 | > 100 | –
N#Cc1c(/C=C/c2ccccc2)c2c([nH]c1=S)CCCCC2 | > 100 | > 100 | > 100 | > 100 | > 100 | > 100 | > 100 | –
C=C(C)C1(Sc2ccc(OC)cc2)CC1 | > 100 | 34.2 | > 100 | > 100 | > 100 | 41.6 | > 100 | –
COc1cc2c3c(n(C)c(=O)c2cc1OC)-c1cc2c(cc1/C3=C\CCCCl)OCO2 | > 100 | 73.2 | > 100 | > 100 | > 100 | > 100 | 80.7 | 35.9
CCSC12OC3(CCCCCN3C1=O)C1C(=O)N(c3ccccc3)C(=O)C12 (centres undefined) | > 100 | – | > 100 | > 100 | > 100 | > 100 | > 100 | –
CCC[N+](C)(C)CCCNC(=O)c1c(O)c2ccccc2[nH]c1=O | > 100 | > 100 | > 100 | > 100 | > 100 | > 100 | > 100 | –
N=C(N)SCc1nc(-c2ccc(Cl)cc2)no1 | > 100 | – | 27.4 | 63 | 29.1 | 37.1 | 32.3 | –
O=C(CSc1nc2ccc(I)cc2c(=O)n1Cc1ccccc1)Nc1ccccc1 | 93.2 | – | > 100 | > 100 | > 100 | > 100 | 46.4 | –
CC1CN(c2cc3c(cc2F)c(=O)c(C(=O)O)cn3-c2ccc(N3CCN(C)CC3)cn2)CC(C)N1 (centres undefined) | > 100 | – | > 100 | > 100 | > 100 | > 100 | > 100 | –
CCOc1ccccc1N=NC1C(=O)N(C(=O)CC(=O)Nc2ccccc2C)N=C1C (centres undefined) | > 100 | > 100 | > 100 | > 100 | > 100 | > 100 | > 100 | –
O=C1CCCC1CC(CN1CCOCC1)Sc1nnnn1-c1ccccc1 (centres undefined) | > 100 | > 100 | 79.1 | > 100 | > 100 | 82.2 | > 100 | –
NS(=O)(=O)c1nnc(NS(=O)(=O)c2cccc3cccnc23)s1 | > 100 | > 100 | > 100 | > 100 | > 100 | – | > 100 | –
CC(=O)NC1C(OCc2ccccc2)OC(CO)C(O)C1OC(C)C(=O)NC(C(=O)NC(CCC(=O)NCCCNc1ccc([N+](=O)[O-])c2[nH]c3ccccc3c(=O)c12)C(N)=O)C(C)C (centres undefined) | > 100 | – | > 100 | > 100 | > 100 | > 100 | > 100 | –
O=C1C(c2ccccc2)=C(c2ccccc2)C1(Cl)Cl | > 27 | 13.3 | 6.15 | 24.5 | 11.4 | 2.17 | 17.2 | –
COC(=O)C1=C(C)NC(C)=C(C(=O)OC)C1c1cccc(/[N+]([O-])=C/c2ccccc2)c1 | 58 | > 100 | 32.3 | > 100 | 30.2 | 71 | – | –
C1=CC2C(C3CN(c4ccccc4)N=C13)C1C3C4C=CC21C=CC43 (centres undefined) | > 100 | > 100 | > 100 | > 100 | > 100 | > 100 | > 100 | –
NC1(c2cc3ccccc3s2)CCCCCC1 | 33.7 | 4.49 | 26.8 | 30.9 | 27.7 | 31.5 | 35.2 | –
[N-]=[N+]=C(C(=O)CN1CCCC1=O)S(=O)(=O)c1ccccc1 | > 100 | > 100 | – | > 100 | – | > 100 | – | –
NS(=O)(=O)c1ccc(-c2ccc([As](=O)(O)O)cc2)cc1 | > 100 | – | > 100 | > 100 | > 100 | > 100 | – | –
CCOC(=O)c1ccc2nc3n(c2c1)C(c1c(F)cccc1F)SC3 (centres undefined) | > 100 | > 100 | > 100 | > 100 | > 100 | > 100 | > 100 | –
CCOP(=O)(OCC)C(Nc1ccc(Cl)cc1)c1ccc(F)cc1 (centres undefined) | 87.3 | 59.1 | 83.6 | 91.4 | > 100 | 54.1 | 58.7 | –
COC(=O)/C1=C/C=C\C[C@@]2(C)CC(c3ccoc3)OC(=O)[C@@H]2CC[C@H]1C (some centres undefined) | > 25 | > 25 | > 25 | – | > 25 | > 25 | > 25 | –
O=C(CC(=O)N1N=C(c2ccccc2)C(N=Nc2ccc(S(=O)(=O)CCOS(=O)(=O)O)cc2)C1=O)Nc1ccc(Cl)cc1 (centres undefined) | > 100 | > 100 | > 100 | > 100 | – | > 100 | > 100 | –
O/N=C1\C/C(=N\O)c2c(Br)sc(Br)c21 | > 100 | 50.2 | 60 | > 100 | > 100 | > 100 | > 100 | –
COc1cc2nc(-c3cccs3)nc(Nc3ccccc3C(=O)NN)c2cc1OC | > 100 | > 100 | > 100 | > 100 | > 100 | > 100 | > 100 | –
CCCN=C1NC(C)=CSC(Nc2ccccc2)=C1C#N | > 100 | – | > 100 | > 100 | > 100 | – | > 100 | –
